Reference: publication PMC6032384 (International Journal of Molecular Sciences, 2018)
Read-outs that look alike come from different tables or passages of the source.

Key:
[1] = tested on: BAD gene knockout immortalized mouse embryonic fibroblasts (BAD KO SV40 MEF); test: Alamar blue (AB) cytotoxicity assay, BAD KO SV40 MEF; type: cell-based; details: 72 h
[2] = tested on: wild-type immortalized mouse embryonic fibroblasts (WT SV40 MEF); test: Alamar blue (AB) cytotoxicity assay, WT SV40 MEF; type: cell-based; details: 72 h
[3] = tested on: MRC-5 (human lung fibroblast); test: Alamar blue (AB) cytotoxicity assay, MRC-5 noncancerous cells; type: cell-based; details: MRC5 non-cancer cells, 72 h
[4] = tested on: PBMC (human peripheral blood mononuclear cell); test: Alamar blue (AB) cytotoxicity assay, PBMC noncancerous cells; type: cell-based; details: PBMC non-cancer cells, 72 h
[5] = tested on: HL-60 cells; test: Cell morphology (May-Grunwald-Giemsa staining) and light scattering by flow cytometry; type: cell-based, human; details: 24 and 48 h
[6] = tested on: HL-60 cells; type: cell-based, human
Protocol: The internucleosomal DNA fragmentation and cell cycle distribution were assessed in HL-60 cells after 24 and 48 h of incubation with the [Ru(PPh3)2(Thy)(bipy)]PF6 complex in a DNA content-based assay using the dye propidium iodide (PI) and flow cytometry (Table 3). All DNA with a subdiploid size (sub-G0/G1) were considered to be fragmented. At concentrations of 1, 2, and 4 μM, the complex led to, respectively, 19.4%, 30.1%, and 36.2% DNA fragmentation after 24 h of incubation and to 12.5%, 26.7%, and 58.2% DNA fragmentation after 48 h of incubation.
(§1) Light scattering features were determined by flow cytometry. The internucleosomal DNA fragmentation and cell cycle distribution were determined according to Nicoletti et al.. For apoptosis measurements, a FITC Annexin V Apoptosis Detection Kit I (BD Biosciences, San Jose, CA, USA) was used, and the analysis was performed, according to the manufacturer’s instructions. A protection assay using the pan-caspase inhibitor Z-VAD(OMe)-FMK (Cayman Chemical, Ann Arbor, MI, USA) was also evaluated. The mitochondrial transmembrane potential was determined by the retention of the dye rhodamine 123 [28]. The levels of ROS were measured, as previously described, using 2′,7′-dichlorofluorescin diacetate (DCF-DA, Sigma-Aldrich Co.). At least 1 × 10^4 events were recorded per sample using a BD LSRFortessa cytometer along with BD FACSDiva Software (BD Biosciences) and Flowjo Software 10 (Flowjo LCC, Ashland, OR, USA). The cellular debris was omitted from the analysis.

[7] = tested on: HL-60 cells; test: Annexin V-FITC/PI apoptosis assay by flow cytometry; type: cell-based, human
Protocol: Additionally, annexin V, which is a Ca^2+-dependent protein with high affinity for phosphatidylserine, was conjugated to a fluorochrome to detect phosphatidylserine exposure using flow cytometry. Since phosphatidylserine exposure precedes the loss of membrane integrity, annexin V staining was used along with the dye PI to identify early and late apoptotic cells, as well as necrotic cells. Therefore, annexin V-FITC/PI double staining was applied to HL-60 cells that were treated with the [Ru(PPh3)2(Thy)(bipy)]PF6 complex after 24 and 48 h of incubation, and the numbers of viable, early apoptotic, late apoptotic, and necrotic cells were quantified by flow cytometry (Figure 5).
Figure 5 Evaluation of the apoptosis induced by the [Ru(PPh3)2(Thy)(bipy)]PF6 complex (CRT) in HL-60 cells determined by flow cytometry using annexin V-FITC/PI staining after 24 and 48 h of incubation. (A) Representative flow cytometry dot plots. (B) Apoptotic cell quantification (annexin V-FITC positive cells). […] Data are presented as the mean ± S.E.M. of at the least three independent experiments. * p < 0.05 as compared with the negative control by ANOVA, followed by the Student Newman-Keuls test. […] Its quadrant percentages are just as hard to read: 24 h about Q1 0.640%, Q2 5.23%, Q4 85.6%, Q3 8.47%; 48 h about Q1 0.430%, Q2 3.07%, Q4 91.0%, Q3 5.52%.
as §1

[8] = tested on: HL-60 cells; test: Protection assay with pan-caspase inhibitor Z-VAD(OMe)-FMK (annexin V-FITC/PI); type: cell-based, human; details: 50 µM Z-VAD(OMe)-FMK 2 h, then 4 μM CRT 48 h
Description: Loss of the mitochondrial transmembrane potential is a critical step in intrinsic apoptosis, and activation of caspase-3 (an executioner caspase) favors DNA fragmentation.
Figure 7 Prevention of the apoptosis induced by the [Ru(PPh3)2(Thy)(bipy)]PF6 complex (CRT) in HL-60 cells by a pan-caspase inhibitor (Z-VAD(OMe)-FMK), as assessed by flow cytometry using annexin V-FITC/PI staining. (A) Representative flow cytometry dot plots. (B) Apoptotic cell quantification (annexin V-FITC positive cells). The cells were pretreated for 2 h with 50 µM Z-VAD(OMe)-FMK and then incubated with 4 μM CRT for 48 h. […]
as §1, with “For apoptosis measurements, a FITC Annexin V Apoptosis Detection Kit I (BD Biosciences, San Jose, CA, USA) was used, and the analysis was performed, according to the manufacturer’s instructions.” left out, “The cellular debris was omitted from the analysis.” left out

[9] = tested on: caspase-3 in HL-60 cells; test: Caspase-3 colorimetric assay; type: cell-based, human; details: 48 h
Protocol: (§2) Figure 6 Caspase-3 activity (A), assessed by a colorimetric assay after 48 h of incubation, and mitochondrial membrane potential (B), evaluated by flow cytometry using rhodamine 123 staining after 24 h of incubation, of HL-60 cells treatment with the [Ru(PPh3)2(Thy)(bipy)]PF6 complex (CRT). […] Data are presented as the mean ± S.E.M. of at the least three independent experiments. * p < 0.05 as compared with the negative control by ANOVA, followed by the Student Newman-Keuls test.
The cell lines that were used in this study were obtained from the American Type Culture Collection (ATCC) and were cultured, as described previously. Primary PBMCs were obtained with informed consent (# 031019/2013). All the cells were free of contamination, and the cell viability was determined by the TBE or AB assay, which were performed following the procedure that was described previously. The cell morphology analysis was performed using cytospin and May-Grunwald-Giemsa staining as described previously. To investigate caspase-3 activation, a caspase-3 colorimetric assay kit (Sigma-Aldrich Co.) was used.

[10] = tested on: HL-60 cells; test: Mitochondrial transmembrane potential (rhodamine 123, flow cytometry); type: cell-based, human; details: rhodamine 123, 24 h
Protocol: as §2
as §1, with “The cellular debris was omitted from the analysis.” left out

[11] = tested on: HL-60 cells; test: ROS levels (DCF-DA, flow cytometry); type: cell-based, human; details: 1 or 3 h of incubation, data not shown
Protocol: The induction of ROS production is also an important mechanism for inducing apoptosis.
as §1

[12] = tested on: tested cancer cell lines; test: Alamar blue cytotoxicity, summary over the tested cancer cell lines; type: cell-based; details: AB assay, 72 h, most of the tested cancer cell lines
[13] = tested on: HL-60 cells; details: TBE
[14] = tested on: B16-F10, HepG2, K562, and HL-60; design: method as in doi:10.1039/C7NJ04368F; details: small panel of cancer cells (B16-F10, HepG2, K562, and HL-60), previous study; cited from earlier work

Structure (SMILES): O=c1[nH]cc(F)c(=O)[nH]1 [5-fluorouracil]
- IC50 ([1]; Mus musculus, Fibroblast): 11200 nM
- IC50 ([2]; Mus musculus, Fibroblast): 5700 nM

Structure (SMILES): Cc1c[nH]c(=O)[n-]c1=O.F[P-](F)(F)(F)(F)F.[Ru+2].c1ccc(-c2ccccn2)nc1.c1ccc(P(c2ccccc2)c2ccccc2)cc1.c1ccc(P(c2ccccc2)c2ccccc2)cc1 [CRT, [Ru(PPh3)2(Thy)(bipy)]PF6]
- IC50 [3]: 11500 nM
- IC50 [4]: 1700 nM
- IC50 [1]: 2400 nM
- IC50 [2]: 2200 nM
- Cell morphology ([5]; May-Grunwald-Giemsa-stained cells): cell morphology changes that were associated with apoptosis
- Forward light scatter (FSC), cell shrinkage ([5]; flow cytometry): decrease
- Side scatter (SCC), nuclear condensation ([5]; flow cytometry): increase
- DNA content G0/G1 ([6]; 1 µM, 24 h): 30.5 ± 4.8 %
- DNA content G2/M ([6]; 1 µM, 24 h): 18.5 ± 0.7%
- DNA content S ([6]; 1 µM, 24 h): 11.5 ± 1.7%
- DNA content Sub-G0/G1 (DNA fragmentation) ([6]; 1 µM, 24 h): 19.4 ± 3.9 %
- DNA content Sub-G0/G1 (DNA fragmentation) ([6]; 1 µM, 24 h, listed as [Ru(PPh3)2(Thy)(bipy)]PF6 complex): 19.4%
- DNA content G0/G1 ([6]; 1 µM, 48 h): 41.2 ± 9.6 %
- DNA content G2/M ([6]; 1 µM, 48 h): 10.8 ± 2.5%
- DNA content S ([6]; 1 µM, 48 h): 11.2 ± 2.4%
- DNA content Sub-G0/G1 (DNA fragmentation) ([6]; 1 µM, 48 h): 12.5 ± 3.5 %
- DNA content Sub-G0/G1 (DNA fragmentation) ([6]; 1 µM, 48 h, listed as [Ru(PPh3)2(Thy)(bipy)]PF6 complex): 12.5%
- DNA content G0/G1 ([6]; 2 µM, 24 h): 38.7 ± 2.2 %
- DNA content G2/M ([6]; 2 µM, 24 h): 17.9 ± 4.4%
- DNA content S ([6]; 2 µM, 24 h): 7.8 ± 1.5 %
- DNA content Sub-G0/G1 (DNA fragmentation) ([6]; 2 µM, 24 h): 30.1 ± 7.9 %
- DNA content Sub-G0/G1 (DNA fragmentation) ([6]; 2 µM, 24 h, listed as [Ru(PPh3)2(Thy)(bipy)]PF6 complex): 30.1%
- DNA content G0/G1 ([6]; 2 µM, 48 h): 42.6 ± 4.9 %
- DNA content G2/M ([6]; 2 µM, 48 h): 14.4 ± 2.5%
- DNA content S ([6]; 2 µM, 48 h): 10.5 ± 0.8 %
- DNA content Sub-G0/G1 (DNA fragmentation) ([6]; 2 µM, 48 h): 26.7 ± 7.0 %
- DNA content Sub-G0/G1 (DNA fragmentation) ([6]; 2 µM, 48 h, listed as [Ru(PPh3)2(Thy)(bipy)]PF6 complex): 26.7%
- DNA content G0/G1 ([6]; 4 µM, 24 h): 36.3 ± 3.1 %
- DNA content G2/M ([6]; 4 µM, 24 h): 13.2 ± 4.1%
- DNA content S ([6]; 4 µM, 24 h): 10.4 ± 2.4%
- DNA content Sub-G0/G1 (DNA fragmentation) ([6]; 4 µM, 24 h): 36.2 ± 9.5 %
- DNA content Sub-G0/G1 (DNA fragmentation) ([6]; 4 µM, 24 h, listed as [Ru(PPh3)2(Thy)(bipy)]PF6 complex): 36.2%
- DNA content G0/G1 ([6]; 4 µM, 48 h): 28.4 ± 5.9 %
- DNA content G2/M ([6]; 4 µM, 48 h): 5.5 ± 2.6 %
- DNA content S ([6]; 4 µM, 48 h): 4.4 ± 1.2 %
- DNA content Sub-G0/G1 (DNA fragmentation) ([6]; 4 µM, 48 h): 58.2 ± 8.8 %
- DNA content Sub-G0/G1 (DNA fragmentation) ([6]; 4 µM, 48 h, listed as [Ru(PPh3)2(Thy)(bipy)]PF6 complex): 58.2%
- Effect of pretreatment with antioxidant N-acetyl-L-cysteine (NAC) on the increase in apoptotic cells ([7]; NAC pretreatment, data not shown): did not prevent
- Percentage of apoptotic cells (early apoptotic cells + late apoptotic cells) ([7]; annexin V-FITC/PI, 24 and 48 h): significant increase
- Percentage of necrotic cells ([7]; annexin V-FITC/PI, 24 and 48 h): No significant increase
- Effect of pan-caspase inhibitor Z-VAD(OMe)-FMK on the complex-induced increase in apoptotic cells [8]: partially prevented
- Caspase-3 activity [9]: induced activation of caspase-3
- Mitochondrial transmembrane potential [10]: caused the loss of the mitochondrial transmembrane potential
- ROS levels [11]: did not induce a significant increase
- IC50 [12]: < 3000 nM
- Reduction of the number of viable cells ([13]; 1 μM, 24 h): 32.5%
- Reduction of the number of viable cells ([13]; 1 μM, 48 h): 62.6%
- Reduction of the number of viable cells ([13]; 2 μM, 24 h): 49.1%
- Reduction of the number of viable cells ([13]; 2 μM, 48 h): 66.6%
- Reduction of the number of viable cells ([13]; 4 μM, 24 h): 59.1%
- Reduction of the number of viable cells ([13]; 4 μM, 48 h): 73.4%
- Number of nonviable cells ([13]; 1, 2 and 4 μM, 24 and 48 h): No significant increase
- IC50 [14]: < 2000 nM
